Experimental findings from PubChem BioAssay (NCI) are described below.

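Test compounds were applied to cells in 96-well plates for 48 hours at 5 doses. TGI denotes the concentration required for complete inhibition of growth.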

Test systems include 786-0 renal; ACHN renal; CCRF-CEM leukemia; HCT-15 colon; HOP-92 NSCLC; KM12 colon; M14 melanoma; NCI-H23 lung; NCI-H522 lung; OVCAR-3 ovarian; OVCAR-5 ovarian; OVCAR-8 ovarian; SF-268 CNS; SF-539 CNS; SK-MEL-28 melanoma; SK-MEL-5 melanoma; SK-OV-3 ovarian; SNB-19 CNS; T-47D breast.
Common to all, as to test: DTP human tumour cell line panel, 48 h

Take `C/C=C1/CN2CCC34C5=CC(=O)C(c6cc7c(cc6OC)N(C)C6=C(C(=O)OC)CC8(CC)CCCN9CCC67C98)=CC5=NC23CCC1C4C(=O)OC` (stereo not drawn): the TGI in the experiment with 786-0 renal turned out to be 24.9 µM; with ACHN renal it was 29.1 µM; in the experiment with CCRF-CEM leukemia, 5.99 µM; in the experiment with HCT-15 colon, 28.3 µM; with HOP-92 NSCLC it was 20.8 µM; in the experiment on KM12 colon, 30.3 µM. In addition, the TGI in the experiment on M14 melanoma worked out at 24.8 µM; in the experiment on NCI-H23 lung, 28.2 µM; in the experiment on NCI-H522 lung, 23.7 µM; in the experiment on OVCAR-3 ovarian, 27.4 µM; with OVCAR-5 ovarian it was 16.8 µM; in the experiment with OVCAR-8 ovarian, 30.2 µM. In addition, the TGI was 33.1 µM in the experiment on SF-268 CNS; 28 µM with SF-539 CNS; 31 µM with SK-MEL-28 melanoma; 28.5 µM with SK-MEL-5 melanoma; 30.9 µM in the experiment on SK-OV-3 ovarian; 30.3 µM in the experiment on SNB-19 CNS. The compound further displayed a TGI with T-47D breast of 29 µM.
For the compound `CC(C)=C1C(=O)C[C@]2(C)C/C=C(\C)CC/C=C(\C)CC[C@@H]12`, the TGI with 786-0 renal turned out to be 16.7 µM; in the experiment on ACHN renal it was 16.4 µM; in the experiment with CCRF-CEM leukemia it was 19.5 µM; in the experiment with HCT-15 colon it was 15.4 µM; in the experiment with HOP-92 NSCLC, 19.3 µM; in the experiment on KM12 colon, 16.1 µM. The TGI with M14 melanoma turned out to be 15.8 µM; with NCI-H23 lung it was 23.9 µM; in the experiment with NCI-H522 lung, 13.9 µM; with OVCAR-3 ovarian, 18.1 µM; in the experiment with OVCAR-5 ovarian, 32.1 µM; in the experiment with OVCAR-8 ovarian, 16 µM. Further, the TGI with SF-268 CNS is 18 µM; with SF-539 CNS, 15.8 µM; in the experiment on SK-MEL-28 melanoma it was 15.2 µM; in the experiment with SK-MEL-5 melanoma, 15.5 µM; with SK-OV-3 ovarian, above 50 µM; in the experiment on SNB-19 CNS, above 50 µM. In the experiment with T-47D breast, this compound gave a TGI above 50 µM.
Take `COc1ccc(-c2cn3c(nc4ccccc43)c(C)n2)cc1`: the TGI with 786-0 renal, in the experiment on ACHN renal, in the experiment on CCRF-CEM leukemia, in the experiment with HCT-15 colon, in the experiment with HOP-92 NSCLC and in the experiment on KM12 colon was above 100 µM in each case. Besides, the TGI was above 100 µM with M14 melanoma; above 100 µM in the experiment on NCI-H23 lung; above 100 µM in the experiment with NCI-H522 lung; above 100 µM in the experiment with OVCAR-3 ovarian; above 100 µM in the experiment on OVCAR-5 ovarian; above 96.6 µM in the experiment on OVCAR-8 ovarian. The TGI was above 100 µM with SF-268 CNS; above 100 µM in the experiment with SF-539 CNS; above 100 µM in the experiment on SK-MEL-28 melanoma; above 100 µM in the experiment on SK-MEL-5 melanoma; 39.2 µM with SK-OV-3 ovarian; above 100 µM with SNB-19 CNS. This compound also gave a concentration for total growth inhibition (TGI) in the experiment on T-47D breast above 67.3 µM.
As for `C/C=C/C=C/C1=NN(c2cccc(S(=O)(=O)O)c2)C2(C1)C(Cl)C(=O)N2c1nc2ccccc2s1` (stereo not drawn), the TGI in the experiment on 786-0 renal is 26.7 µM; with ACHN renal it was 28.8 µM; in the experiment on CCRF-CEM leukemia, 13.1 µM; in the experiment with HCT-15 colon, 31.4 µM; with HOP-92 NSCLC, 48.2 µM; in the experiment on KM12 colon it was 27.3 µM. Also, the TGI is 29.4 µM in the experiment on M14 melanoma; 32.1 µM in the experiment with NCI-H23 lung; 13.3 µM with NCI-H522 lung; 24.7 µM in the experiment with OVCAR-3 ovarian; 34.8 µM with OVCAR-5 ovarian; above 54.8 µM in the experiment on OVCAR-8 ovarian. Moreover, the concentration for total growth inhibition (TGI) in the experiment with SF-268 CNS was 38.4 µM; with SF-539 CNS, 27.8 µM; in the experiment on SK-MEL-28 melanoma, 43.6 µM; in the experiment on SK-MEL-5 melanoma, 25.1 µM; with SK-OV-3 ovarian it was 33.9 µM; in the experiment on SNB-19 CNS, 29.9 µM. In addition, the total growth inhibition concentration (TGI) in the experiment on T-47D breast was 21.3 µM.
Regarding `COC(=O)C1=C(O)C(C(=O)OC)[C@]2(O)[C@H](C(=O)OC)[C@H]1C[C@@H](c1ccccc1OC)[C@H]2C(=O)OC` (stereo partly drawn), the TGI in the experiment on 786-0 renal was 20.4 µM; with ACHN renal it was 21.3 µM; in the experiment with CCRF-CEM leukemia it was 21.1 µM; in the experiment with HCT-15 colon, 13.5 µM; with HOP-92 NSCLC it was 15.7 µM; in the experiment on KM12 colon, 21.9 µM. In addition, the TGI with M14 melanoma was 10.2 µM; in the experiment on NCI-H23 lung, 14.8 µM; with NCI-H522 lung it was 5 µM; in the experiment with OVCAR-3 ovarian it was 35.4 µM; with OVCAR-5 ovarian, 16.4 µM; in the experiment on OVCAR-8 ovarian it was 11.8 µM. The total growth inhibition concentration (TGI) in the experiment with SF-268 CNS was 16.5 µM; in the experiment with SF-539 CNS, above 23.7 µM; with SK-MEL-28 melanoma, 27.1 µM; in the experiment on SK-MEL-5 melanoma, 13.2 µM; in the experiment with SK-OV-3 ovarian, above 50.9 µM; with SNB-19 CNS it was 19.7 µM. Besides, the TGI in the experiment with T-47D breast was above 76.1 µM.
Regarding `COc1cc(S(=O)(=O)N/N=C/C=C/c2ccccc2)c(OC)cc1NC(C)=O`, the TGI with 786-0 renal, in the experiment with ACHN renal, in the experiment with CCRF-CEM leukemia, with HCT-15 colon, in the experiment with HOP-92 NSCLC and in the experiment on KM12 colon was above 100 µM in each case. The TGI in the experiment with M14 melanoma, in the experiment on NCI-H23 lung, in the experiment on NCI-H522 lung, in the experiment with OVCAR-3 ovarian, with OVCAR-5 ovarian and in the experiment with OVCAR-8 ovarian was above 100 µM in each case. Further, the TGI with SF-268 CNS is above 100 µM; in the experiment with SF-539 CNS, 81.7 µM; in the experiment on SK-MEL-28 melanoma, above 100 µM; in the experiment on SK-MEL-5 melanoma, 33.3 µM; with SK-OV-3 ovarian, above 100 µM; in the experiment on SNB-19 CNS it was above 100 µM. The TGI in the experiment on T-47D breast is above 100 µM.
In the case of `CCOC(=O)c1ccc(-c2cccs2)n1C`, the TGI with 786-0 renal was above 100 µM; in the experiment with ACHN renal it was above 100 µM; in the experiment with CCRF-CEM leukemia, above 100 µM; in the experiment with HCT-15 colon, above 100 µM; with HOP-92 NSCLC, above 94.8 µM; in the experiment with KM12 colon, above 100 µM. Moreover, the TGI with M14 melanoma, with NCI-H23 lung, in the experiment with NCI-H522 lung, with OVCAR-3 ovarian, in the experiment on OVCAR-5 ovarian and in the experiment on OVCAR-8 ovarian was above 100 µM in each case. Also, the TGI in the experiment with SF-268 CNS, with SF-539 CNS, in the experiment with SK-MEL-28 melanoma, with SK-MEL-5 melanoma, with SK-OV-3 ovarian and with SNB-19 CNS was above 100 µM in each case. Besides, the TGI in the experiment with T-47D breast is above 92.4 µM.

One may read the TGI as the concentration giving total growth inhibition. Low values mean greater sensitivity of the cells, high ones lower sensitivity of the cells.
